Ki and Activity data for 15 compounds are collected here from ChEMBL document CHEMBL1139037, “New Gly-Pro-Glu (GPE) analogues: expedite solid-phase synthesis and biological activity” (Bioorg Med Chem Lett, 2006).

SMILES strings stand for the structures. Non-standard residues stand in square brackets, D forms with d. Residues, ends and D or L forms follow the SMILES beside them. Oic = O=C(O)[C@@H]1C[C@@H]2CCCC[C@@H]2N1; Hyp = O=C(O)[C@@H]1C[C@@H](O)CN1; Pip = O=C(O)[C@@H]1CCCCN1; Ac6c = NC1(C(=O)O)CCCCC1; Nle = CCCC[C@H](N)C(=O)O; Aze = O=C(O)[C@@H]1CCN1; Ac3c = NC1(C(=O)O)CC1

One assay addresses Glutamate NMDA receptor. Kind of assay: Displacement of L-[3H]glutamate from glutamate receptor in rat brain synaptic membrane. The assay is classed as cell membranes.
Assay [1] addresses Glutamate NMDA receptor (Rattus norvegicus) (UniProt P35439+Q00959+Q00960+Q00961+Q62645+Q8VHN2+Q9R1M7). The experiment in a line: Neuroprotective activity in rat hippocampal neurons at 100 uM. Particulars: Hippocampus. The assay is classed as functional, tissue-based.

On Glutamate NMDA receptor, `NCC(=O)N1[C@H](C(=O)N[C@@H](CCC(=O)O)C(=O)O)C[C@@H]2CCCC[C@@H]21` (H-Gly-[Oic]-Glu-OH) yielded a Ki of 22.4 µM. In other words, the double-digit micromolar range. On the same count and under the same terms, the same measure for `C[C@@H](N)C(=O)N1CCC[C@H]1C(=O)N[C@@H](CCC(=O)O)C(=O)O`: 5.4 µM; for `NCC(=O)N1C[C@@H](N)C[C@H]1C(=O)N[C@@H](CCC(=O)O)C(=O)O`: 15.5 µM; for `NCC(=O)N1C2CCC1(C(=O)N[C@@H](CCC(=O)O)C(=O)O)CC2`: 0.48 µM. `NCCCC[C@H](N)C(=O)N1CCC[C@H]1C(=O)N[C@@H](CCC(=O)O)C(=O)O` (H-Lys-Pro-Glu-OH) had a Ki on Glutamate NMDA receptor of 22 µM. Compared with the last compound, the Ki is about 46-fold higher. `NCC(=O)N1CC[C@H]1C(=O)N[C@@H](CCC(=O)O)C(=O)O` (H-Gly-[Aze]-Glu-OH) returned an Activity in assay [1] of 27%. The same compound yielded a Ki at Glutamate NMDA receptor greater than 100 µM. At Glutamate NMDA receptor, `NCC(=O)N1CCCC[C@H]1C(=O)N[C@@H](CCC(=O)O)C(=O)O` (H-Gly-[Pip]-Glu-OH) showed an inhibition constant (Ki) of 2.39 µM.

`NCC(=O)NC1(C(=O)N[C@@H](CCC(=O)O)C(=O)O)CCCCC1` (H-Gly-[Ac6c]-Glu-OH): the Activity in assay [1] was 27%. Also, the inhibition constant (Ki) on Glutamate NMDA receptor was greater than 100 µM. Take `CCCC[C@H](N)C(=O)N1CCC[C@H]1C(=O)N[C@@H](CCC(=O)O)C(=O)O` (H-[Nle]-Pro-Glu-OH): the Ki at Glutamate NMDA receptor was found to be 19.5 µM. On to `NCC(=O)NC1(C(=O)N[C@@H](CCC(=O)O)C(=O)O)CC1` (H-Gly-[Ac3c]-Glu-OH), for which, in assay [1], the Activity was found to be 27%. The same compound came in with a Ki on Glutamate NMDA receptor greater than 100 µM. `CC[C@H](C)[C@H](N)C(=O)N1CCC[C@H]1C(=O)N[C@@H](CCC(=O)O)C(=O)O` (H-Ile-Pro-Glu-OH) returned an inhibition constant Ki on Glutamate NMDA receptor greater than 100 µM. On Glutamate NMDA receptor, `C[C@H](N)C(=O)N1CCC[C@H]1C(=O)N[C@@H](CCC(=O)O)C(=O)O` came in with a Ki of 2.66 µM.

For the compound `NCC(=O)N1C[C@H](O)C[C@H]1C(=O)N[C@@H](CCC(=O)O)C(=O)O` (H-Gly-[Hyp]-Glu-OH), the affinity at Glutamate NMDA receptor corresponds to a Ki of 9.24 µM.

At Glutamate NMDA receptor, `N[C@@H](Cc1ccccc1)C(=O)N1CCC[C@H]1C(=O)N[C@@H](CCC(=O)O)C(=O)O` (H-Phe-Pro-Glu-OH) came in with a Ki of 4.85 µM. Regarding `N[C@@H](CC(=O)O)C(=O)N1CCC[C@H]1C(=O)N[C@@H](CCC(=O)O)C(=O)O` (H-Asp-Pro-Glu-OH), the affinity at Glutamate NMDA receptor corresponds to a Ki of 41.3 µM.

In general, Ki refers to a measure of affinity in units of concentration, obtained from inhibition or displacement. Lower therefore signals higher affinity.
